Publication PMC4571851, “Arginine-Ornithine Antiporter ArcD Controls Arginine Metabolism and Interspecies Biofilm Development of Streptococcus gordonii” (The Journal of Biological Chemistry, 2015)

Biological target: T1, ArcD (arginine-ornithine antiporter) (Streptococcus gordonii, UniProt A8AYK8)
T1 construct: native full-length membrane transporter in intact wild-type S. gordonii cells; deletion mutant and complemented strain as controls
Test: inhibition of [3H]arginine uptake into intact wild-type cells
Assay type: cell-based
Conditions: whole cells in PBS, 20 s, 50 μM labelled arginine, unlabelled ornithine at 100-fold excess

T1 sequence (A8AYK8 entry or part of it): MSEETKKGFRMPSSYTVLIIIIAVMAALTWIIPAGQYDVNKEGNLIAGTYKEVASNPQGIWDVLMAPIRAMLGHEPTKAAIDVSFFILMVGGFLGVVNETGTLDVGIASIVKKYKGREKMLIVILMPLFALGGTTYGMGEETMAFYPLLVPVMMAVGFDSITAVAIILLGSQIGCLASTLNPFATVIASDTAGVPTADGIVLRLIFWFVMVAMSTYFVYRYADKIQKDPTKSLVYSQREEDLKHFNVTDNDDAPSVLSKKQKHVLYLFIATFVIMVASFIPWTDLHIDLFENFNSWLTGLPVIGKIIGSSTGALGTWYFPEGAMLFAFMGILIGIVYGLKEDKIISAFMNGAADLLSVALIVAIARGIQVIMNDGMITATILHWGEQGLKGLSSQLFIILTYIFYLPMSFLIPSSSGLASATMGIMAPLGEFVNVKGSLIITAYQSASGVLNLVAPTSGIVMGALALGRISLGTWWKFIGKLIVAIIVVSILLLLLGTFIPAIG

Structure (SMILES): NCCC[C@H](N)C(=O)O [Ornithine]
- % inhibition at 100-fold excess: Ornithine also had a moderate effect on the inhibition of arginine uptake
